# Laboratory results: PubChem BioAssay (NCI)
#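 These data come from cells grown in 96-well plates and exposed to compound for 48 hours at five concentrations. Definition used: TGI = concentration required for complete inhibition of growth.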
# Columns and labels:
# Test in all cases: NCI-60 cell line screen, 48 h
# HCC-2998 colon = test system: HCC-2998 colon
# A549 NSCLC = test system: A549 NSCLC
# UACC-257 melanoma = test system: UACC-257 melanoma
# MDA-MB-435 = test system: MDA-MB-435
# SK-MEL-2 melanoma = test system: SK-MEL-2 melanoma
# NCI-H460 lung = test system: NCI-H460 lung
# LOX IMVI melanoma = test system: LOX IMVI melanoma
# SW-620 colon = test system: SW-620 colon
# SF-268 CNS = test system: SF-268 CNS
# BT-549 breast = test system: BT-549 breast
# HOP-62 NSCLC = test system: HOP-62 NSCLC
# SF-539 CNS = test system: SF-539 CNS
# SN12C renal = test system: SN12C renal
# 786-0 renal = test system: 786-0 renal
# HCT-116 colon = test system: HCT-116 colon
# SK-MEL-5 melanoma = test system: SK-MEL-5 melanoma
# RXF 393 renal = test system: RXF 393 renal
# NCI-H522 lung = test system: NCI-H522 lung
# OVCAR-4 ovarian = test system: OVCAR-4 ovarian
# U251 CNS = test system: U251 CNS
# SNB-75 CNS = test system: SNB-75 CNS
# T-47D breast = test system: T-47D breast
# COLO 205 colon = test system: COLO 205 colon
# M14 melanoma = test system: M14 melanoma
# DU-145 prostate = test system: DU-145 prostate
# CAKI-1 renal = test system: CAKI-1 renal
# MOLT-4 leukemia = test system: MOLT-4 leukemia
# SF-295 CNS = test system: SF-295 CNS
# UO-31 renal = test system: UO-31 renal
# SK-MEL-28 melanoma = test system: SK-MEL-28 melanoma
# NCI/ADR-RES ovarian = test system: NCI/ADR-RES ovarian
# SNB-19 CNS = test system: SNB-19 CNS
# TK-10 renal = test system: TK-10 renal
# MCF7 breast = test system: MCF7 breast
# SR leukemia = test system: SR leukemia
# HOP-92 NSCLC = test system: HOP-92 NSCLC
# MDA-MB-231 breast = test system: MDA-MB-231 breast
# HT29 colon = test system: HT29 colon
# RPMI-8226 leukemia = test system: RPMI-8226 leukemia
# OVCAR-8 ovarian = test system: OVCAR-8 ovarian
# ACHN renal = test system: ACHN renal
# MDA-N = test system: MDA-N
# A498 renal = test system: A498 renal
# NCI-H226 lung = test system: NCI-H226 lung
# HL-60(TB) leukemia = test system: HL-60(TB) leukemia
# IGROV1 ovarian = test system: IGROV1 ovarian
# UACC-62 melanoma = test system: UACC-62 melanoma
# HCT-15 colon = test system: HCT-15 colon
# OVCAR-5 ovarian = test system: OVCAR-5 ovarian
# KM12 colon = test system: KM12 colon
# NCI-H23 lung = test system: NCI-H23 lung
# K-562 leukemia = test system: K-562 leukemia
# PC-3 prostate = test system: PC-3 prostate
# OVCAR-3 ovarian = test system: OVCAR-3 ovarian
# HS 578T breast = test system: HS 578T breast
# CCRF-CEM leukemia = test system: CCRF-CEM leukemia
# SK-OV-3 ovarian = test system: SK-OV-3 ovarian
# EKVX NSCLC = test system: EKVX NSCLC
# MALME-3M melanoma = test system: MALME-3M melanoma
smiles,measurement,setting,value
C=CCN1C(=O)/C(=C/c2ccc(OC)cc2)NC1=S,TGI,HCC-2998 colon,> 100 µM
same,TGI,A549 NSCLC,> 100 µM
same,TGI,UACC-257 melanoma,78.3 µM
same,TGI,MDA-MB-435,> 100 µM
same,TGI,SK-MEL-2 melanoma,> 100 µM
same,TGI,NCI-H460 lung,> 100 µM
same,TGI,LOX IMVI melanoma,> 100 µM
same,TGI,SW-620 colon,> 100 µM
same,TGI,SF-268 CNS,> 100 µM
same,TGI,BT-549 breast,> 100 µM
same,TGI,HOP-62 NSCLC,> 100 µM
same,TGI,SF-539 CNS,> 100 µM
same,TGI,SN12C renal,> 100 µM
same,TGI,786-0 renal,> 100 µM
same,TGI,HCT-116 colon,> 100 µM
same,TGI,SK-MEL-5 melanoma,> 100 µM
same,TGI,RXF 393 renal,> 100 µM
same,TGI,NCI-H522 lung,> 100 µM
same,TGI,OVCAR-4 ovarian,> 100 µM
same,TGI,U251 CNS,> 100 µM
same,TGI,SNB-75 CNS,> 100 µM
same,TGI,T-47D breast,> 100 µM
same,TGI,COLO 205 colon,> 100 µM
same,TGI,M14 melanoma,> 100 µM
same,TGI,DU-145 prostate,> 100 µM
same,TGI,CAKI-1 renal,> 100 µM
same,TGI,MOLT-4 leukemia,25.6 µM
same,TGI,SF-295 CNS,> 100 µM
same,TGI,UO-31 renal,> 100 µM
same,TGI,SK-MEL-28 melanoma,> 100 µM
same,TGI,NCI/ADR-RES ovarian,> 100 µM
same,TGI,SNB-19 CNS,> 100 µM
same,TGI,TK-10 renal,> 100 µM
same,TGI,MCF7 breast,> 100 µM
same,TGI,SR leukemia,> 100 µM
same,TGI,HOP-92 NSCLC,> 100 µM
same,TGI,MDA-MB-231 breast,> 100 µM
same,TGI,HT29 colon,> 100 µM
same,TGI,RPMI-8226 leukemia,> 100 µM
same,TGI,OVCAR-8 ovarian,> 100 µM
same,TGI,ACHN renal,> 100 µM
same,TGI,MDA-N,> 100 µM
same,TGI,A498 renal,> 100 µM
same,TGI,NCI-H226 lung,> 100 µM
same,TGI,HL-60(TB) leukemia,3.81 µM
same,TGI,IGROV1 ovarian,> 100 µM
same,TGI,UACC-62 melanoma,> 100 µM
same,TGI,HCT-15 colon,> 100 µM
same,TGI,OVCAR-5 ovarian,> 100 µM
same,TGI,KM12 colon,> 100 µM
same,TGI,NCI-H23 lung,> 100 µM
same,TGI,K-562 leukemia,> 100 µM
same,TGI,PC-3 prostate,> 100 µM
same,TGI,OVCAR-3 ovarian,> 100 µM
same,TGI,HS 578T breast,> 100 µM
same,TGI,CCRF-CEM leukemia,13.1 µM
same,TGI,SK-OV-3 ovarian,> 100 µM
same,TGI,EKVX NSCLC,58.7 µM
Oc1ccccc1/C=N/Nc1nc(N/N=C/c2ccccc2O)nc(N/N=C/c2ccccc2O)n1,TGI,HCC-2998 colon,> 100 µM
same,TGI,A549 NSCLC,> 100 µM
same,TGI,UACC-257 melanoma,> 100 µM
same,TGI,MDA-MB-435,> 100 µM
same,TGI,SK-MEL-2 melanoma,> 100 µM
same,TGI,NCI-H460 lung,> 100 µM
same,TGI,LOX IMVI melanoma,> 100 µM
same,TGI,SW-620 colon,> 100 µM
same,TGI,SF-268 CNS,> 100 µM
same,TGI,BT-549 breast,> 100 µM
same,TGI,HOP-62 NSCLC,> 100 µM
same,TGI,SF-539 CNS,> 100 µM
same,TGI,SN12C renal,> 100 µM
same,TGI,786-0 renal,> 100 µM
same,TGI,HCT-116 colon,> 100 µM
same,TGI,SK-MEL-5 melanoma,> 100 µM
same,TGI,RXF 393 renal,> 100 µM
same,TGI,NCI-H522 lung,> 100 µM
same,TGI,OVCAR-4 ovarian,> 100 µM
same,TGI,U251 CNS,> 100 µM
same,TGI,T-47D breast,> 100 µM
same,TGI,COLO 205 colon,> 100 µM
same,TGI,M14 melanoma,> 100 µM
same,TGI,DU-145 prostate,> 100 µM
same,TGI,CAKI-1 renal,> 100 µM
same,TGI,MOLT-4 leukemia,> 100 µM
same,TGI,SF-295 CNS,> 100 µM
same,TGI,UO-31 renal,> 100 µM
same,TGI,SK-MEL-28 melanoma,> 100 µM
same,TGI,NCI/ADR-RES ovarian,> 100 µM
same,TGI,SNB-19 CNS,> 100 µM
same,TGI,TK-10 renal,> 100 µM
same,TGI,MCF7 breast,> 100 µM
same,TGI,SR leukemia,> 100 µM
same,TGI,HOP-92 NSCLC,81.7 µM
same,TGI,MDA-MB-231 breast,> 100 µM
same,TGI,HT29 colon,> 100 µM
same,TGI,OVCAR-8 ovarian,> 100 µM
same,TGI,ACHN renal,> 100 µM
same,TGI,MDA-N,> 100 µM
same,TGI,A498 renal,> 100 µM
same,TGI,NCI-H226 lung,> 100 µM
same,TGI,HL-60(TB) leukemia,> 100 µM
same,TGI,IGROV1 ovarian,> 100 µM
same,TGI,UACC-62 melanoma,> 100 µM
same,TGI,HCT-15 colon,> 100 µM
same,TGI,OVCAR-5 ovarian,> 100 µM
same,TGI,KM12 colon,> 100 µM
same,TGI,NCI-H23 lung,> 100 µM
same,TGI,K-562 leukemia,> 100 µM
same,TGI,MALME-3M melanoma,> 100 µM
same,TGI,PC-3 prostate,> 100 µM
same,TGI,OVCAR-3 ovarian,> 100 µM
same,TGI,HS 578T breast,> 100 µM
same,TGI,SK-OV-3 ovarian,> 100 µM
same,TGI,EKVX NSCLC,> 100 µM
